Laboratory results from article PMC9939733 (The Journal of Biological Chemistry, 2023).
Positions count from the first letter of the chain named.

Tests used:
Format in all cases: biochemical
R140Q IDH2 [1] = biological target: T1, R140Q IDH2 (Homo sapiens, UniProt P48735, R140Q); assay: Absorbance assay, variant activity in the presence of equimolar 2OG (inhibition screen); settings: 6.0 mM 2OG and 6.0 mM test compound, 0.03 μM R140Q IDH2, 50 μM NADPH
T1 construct: made in house; host or cells: Sf21 insect cells (cell pellets prepared at Evotec)
T1 sequence (P48735 40-452 R140Q): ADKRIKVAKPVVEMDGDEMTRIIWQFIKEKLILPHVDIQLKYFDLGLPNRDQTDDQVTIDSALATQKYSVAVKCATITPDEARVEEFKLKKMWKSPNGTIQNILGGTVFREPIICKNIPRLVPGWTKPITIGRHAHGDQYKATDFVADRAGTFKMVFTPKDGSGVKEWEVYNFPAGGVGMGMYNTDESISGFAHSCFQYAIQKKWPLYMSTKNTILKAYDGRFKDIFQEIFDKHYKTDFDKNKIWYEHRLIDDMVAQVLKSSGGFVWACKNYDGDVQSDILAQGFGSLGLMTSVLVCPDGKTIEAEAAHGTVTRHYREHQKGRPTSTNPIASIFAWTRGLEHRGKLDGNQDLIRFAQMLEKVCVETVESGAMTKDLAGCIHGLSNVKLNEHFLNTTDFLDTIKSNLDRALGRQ
In short: (§1)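 Values come from four technical replicates per reaction; compound transfer used a simultaneous pipettor and reagent dispensing triggered the start.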

R172K IDH2 [2] = biological target: T2, R172K IDH2 (Homo sapiens, UniProt P48735, R172K); assay: as above; settings: 1.0 mM 2OG and 1.0 mM test compound, 0.03 μM R172K IDH2, 50 μM NADPH
T2 construct: made in house; host or cells: Sf21 insect cells (cell pellets prepared at Evotec)
T2 sequence (P48735 40-452 R172K): T1 sequence (P48735 40-452 R140Q) with Q101R, R133K
In short: as §1

R132H IDH1 [3] = biological target: T3, R132H IDH1 (Homo sapiens, UniProt O75874, R132H); assay: as above; parameters: made in house; host or cells: Escherichia coli BL21(DE3) pLyS; settings: […] 2OG and […] test compound, 0.03 μM R132H IDH1, 50 μM NADPH
In short: as §1

R140Q IDH2 [4] = biological target: T1, R140Q IDH2; assay: Steady-state kinetics, absorbance assay; settings: 0.03 μM enzyme, 50 μM NADPH, 20 mM MgCl2, pH 8.0
Description: (§2) Compounds were dispensed using a CyBio SDW-CW CyBi-Well Simultaneous Pipettor and assay started using a ThermoFisher Multidrop Combi reagent dispenser.
(§3) Reactions were performed as technical duplicates, and all assays were carried out in two independent duplicates.

WT IDH2 [5] = biological target: T4, WT IDH2 (Homo sapiens, UniProt P48735); assay: Absorbance assay, WT activity in the presence of equimolar DL-isocitrate (inhibition); settings: […] isocitrate and […] test compound, 75 μM NADP+, 2.0 nM WT IDH2
T4 construct: made in house; host or cells: Sf21 insect cells (cell pellets prepared at Evotec)
T4 sequence (P48735 40-452): T1 sequence (P48735 40-452 R140Q) with Q101R
In short: as §1

WT IDH1 [6] = biological target: T5, WT IDH1 (Homo sapiens, UniProt O75874); assay: as above; settings: […] isocitrate and […] test compound, 75 μM NADP+, 2.0 nM WT IDH1
T5 construct: made in house; host or cells: Escherichia coli BL21(DE3) pLyS
In short: as §1

WT IDH2 [7] = biological target: T4, WT IDH2; assay: Absorbance assay, substrate activity in the absence of DL-isocitrate; settings: no DL-isocitrate; […] test compound, 75 μM NADP+, 2.0 nM WT IDH2; compared to DL-isocitrate
In short: as §1

WT IDH1 [8] = biological target: T5, WT IDH1; assay: as above; settings: no DL-isocitrate; […] test compound, 75 μM NADP+, 2.0 nM WT IDH1; compared to DL-isocitrate
In short: as §1

R172K IDH2 [9] = biological target: T2, R172K IDH2; assay: Steady-state kinetics, absorbance assay; settings: 0.03 μM enzyme, 50 μM NADPH, 20 mM MgCl2, pH 8.0
Description: as §2, §3

R140Q IDH2 [10] = biological target: T1, R140Q IDH2; assay: Absorbance assay (NADPH consumption), substrate turnover in the absence of 2OG; settings: no 2OG; 6.0 mM test compound, 0.03 μM R140Q IDH2, 50 μM NADPH; 2OG = 100
In short: as §1

R172K IDH2 [11] = biological target: T2, R172K IDH2; assay: as above; settings: no 2OG; 1.0 mM test compound, 0.03 μM R172K IDH2, 50 μM NADPH; 2OG = 100
In short: as §1

R132H IDH1 [12] = biological target: T3, R132H IDH1; assay: as above; parameters: made in house; host or cells: Escherichia coli BL21(DE3) pLyS; settings: no 2OG; […] test compound, 0.03 μM R132H IDH1, 50 μM NADPH; 2OG = 100
In short: as §1

T5 sequence (O75874 whole entry): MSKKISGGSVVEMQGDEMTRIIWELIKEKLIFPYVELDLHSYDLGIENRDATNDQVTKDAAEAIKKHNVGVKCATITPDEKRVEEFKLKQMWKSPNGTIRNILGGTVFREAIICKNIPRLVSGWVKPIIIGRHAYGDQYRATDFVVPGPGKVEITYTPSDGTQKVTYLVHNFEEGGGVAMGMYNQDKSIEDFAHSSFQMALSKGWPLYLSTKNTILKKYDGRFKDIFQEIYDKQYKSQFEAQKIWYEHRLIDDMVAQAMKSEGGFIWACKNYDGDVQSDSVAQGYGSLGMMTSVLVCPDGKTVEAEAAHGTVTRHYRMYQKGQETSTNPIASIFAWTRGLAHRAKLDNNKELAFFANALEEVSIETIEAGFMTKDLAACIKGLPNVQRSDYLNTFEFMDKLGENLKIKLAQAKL
T3 sequence (O75874 whole entry R132H): as the sequence (O75874 whole entry) above, with R132H counted along it

| activity [%] (%-substrate conversion after 20 min incubation) (R140Q IDH2 [1]) | activity [%] (%-substrate conversion after 20 min incubation) (R172K IDH2 [2]) | activity [%] (%-substrate conversion after 20 min incubation) (R132H IDH1 [3]) | Kmapp (R140Q IDH2 [4]) [mM] | activity [%] (%-substrate conversion after 20 min incubation) (WT IDH2 [5]) | activity [%] (%-substrate conversion after 20 min incubation) (WT IDH1 [6]) | activity [%] (%-substrate conversion after 20 min incubation) (WT IDH2 [7]) | activity [%] (%-substrate conversion after 20 min incubation) (WT IDH1 [8]) | kcatapp (R172K IDH2 [9]) [s⁻¹] | Molecule | activity [%] (%-substrate conversion after 20 min incubation) (R140Q IDH2 [10]) | activity [%] (%-substrate conversion after 20 min incubation) (R172K IDH2 [11]) | activity [%] (%-substrate conversion after 20 min incubation) (R132H IDH1 [12]) |
| --- | --- | --- | --- | --- | --- | --- | --- | --- | --- | --- | --- | --- |
| 865 ± 78 | 131 ± 16 | 317 ± 12 | 3.8 to 7.5 | 96±3 | 98±10 | < 10 | < 10 | – | CCC(CC(=O)O)C(=O)C(=O)O (racemic) [compound 2] | – | – | – |
| 91 ± 8 | 114 ± 4 | 229 ± 21 | 3.8 to 7.5 | 99±1 | 94±1 | < 10 | < 10 | – | O=C(O)CC(Cc1ccccc1)C(=O)C(=O)O (centres unmarked) [compound 7, 3-benzyl-2OG] | – | – | – |
| 632 ± 68 | 105 ± 6 | 294 ± 31 | – | 96±5 | 105±5 | < 10 | < 10 | ~2.7 | CCCC(CC(=O)O)C(=O)C(=O)O (racemic) [compound 3] | – | – | – |
| 108 ± 4 | 114 ± 12 | 112 ± 8 | – | 97 ± 5 | 111 ± 6 | < 10 | < 10 | – | CC(=O)C(=O)O [pyruvic acid] | < 10 | < 10 | < 10 |

| Molecule | activity [%] (%-substrate conversion after 20 min incubation) (R140Q IDH2 [1]) | activity [%] (%-substrate conversion after 20 min incubation) (R172K IDH2 [2]) | activity [%] (%-substrate conversion after 20 min incubation) (R132H IDH1 [3]) | Kmapp (R140Q IDH2 [4]) [mM] | activity [%] (%-substrate conversion after 20 min incubation) (WT IDH2 [5]) | activity [%] (%-substrate conversion after 20 min incubation) (WT IDH1 [6]) | activity [%] (%-substrate conversion after 20 min incubation) (WT IDH2 [7]) | activity [%] (%-substrate conversion after 20 min incubation) (WT IDH1 [8]) | kcatapp (R172K IDH2 [9]) [s⁻¹] | activity [%] (%-substrate conversion after 20 min incubation) (R140Q IDH2 [10]) | activity [%] (%-substrate conversion after 20 min incubation) (R172K IDH2 [11]) | activity [%] (%-substrate conversion after 20 min incubation) (R132H IDH1 [12]) |
| --- | --- | --- | --- | --- | --- | --- | --- | --- | --- | --- | --- | --- |
| succinyl CoA | 117 ± 2 | 91 ± 6 | 73 ± 1 | – | 99 ± 1 | 100 ± 1 | < 10 | < 10 | – | < 10 | < 10 | < 10 |
